Measurements reported in ChEMBL document CHEMBL5543150, “Design, Synthesis, and Pharmacological Evaluation of Spiro[carbazole-3,3'-pyrrolidine] Derivatives as cGAS Inhibitors for Treatment of Acute Lung Injury” (J Med Chem, 2024).
pIC50, pKd: −log10 of the molar value. Where “and” joins values, the source holds several entries; their conditions need not be identical. Identical values can stand only once.

Legend:
[1] = Half life in rat at 3 mg/kg, po; conditions: in vivo
in vivo [2] = conditions: rat, iv, 1 mg/kg
[3] = Volume of distribution at steady state in rat at 1 mg/kg, iv; conditions: in vivo
[4] = MRT last in rat at 3 mg/kg, po; conditions: in vivo
Cyclic GMP-AMP synthase [5] = molecular target: T1, Cyclic GMP-AMP synthase (Homo sapiens, UniProt Q8N884); experiment: Inhibition of cGAS in human THP1-Dual cells preincubated for 1 hr followed by cGAMP addition and measured after 24 hrs by luminescence based QUANTI-Luc assay
[6] = Cytotoxicity against mouse RAW-Lucia ISG cells incubated for 24 hrs by CCK-8 method
in vivo [7] = conditions: rat, po, 3 mg/kg
Description: Tmax in rat at 3 mg/kg, po

in vivo [8] = conditions: rat, iv, 1 mg/kg; remark: listed apart in the source
[9] = Half life in rat at 1 mg/kg, iv; conditions: in vivo
in vivo [10] = conditions: rat, po, 3 mg/kg; remark: listed apart in the source
Description: Cmax in rat at 3 mg/kg, po

Cyclic GMP-AMP synthase [11] = molecular target: T2, Cyclic GMP-AMP synthase (Mus musculus, UniProt Q8C6L5); experiment: Inhibition of cGAS in mouse RAW-Lucia ISG cells preincubated for 1 hr followed by cGAMP addition and measured after 24 hrs by luminescence based QUANTI-Luc assay
Cyclic GMP-AMP synthase [12] = molecular target: T1, Cyclic GMP-AMP synthase; experiment: Inhibition of full length recombinant human cGAS expressed in Escherichia coli BL21 (DE3) incubated for 7 hrs by Kinase-glo max luminescent kinase assay
Cyclic GMP-AMP synthase [13] = molecular target: T2, Cyclic GMP-AMP synthase; experiment: Inhibition of cGAS in dsDNA activated mouse RAW-Lucia ISG cells preincubated for 1 hr followed by cGAMP addition and measured after 24 hrs by luminescence based QUANTI-Luc assay
in vivo [14] = conditions: rat, po, 3 mg/kg; remark: listed apart in the source
Description: AUC last in rat at 3 mg/kg, po

Cyclic GMP-AMP synthase [15] = molecular target: T1, Cyclic GMP-AMP synthase; experiment: Binding affinity to human cGAS assessed as dissociation constant measured upto 240 secs by surface plasmon resonance assay
Cyclic GMP-AMP synthase [16] = molecular target: T1, Cyclic GMP-AMP synthase; experiment: Inhibition of cGAS in dsDNA stimulated human THP-1 cells assessed as inhibition of IFNB1 mRNA level by qRT-PCR analysis
in vivo [17] = conditions: rat, po, 3 mg/kg; remark: listed apart in the source
Description: Oral bioavailability in rat at 3 mg/kg

[18] = MRT last in rat at 1 mg/kg, iv; conditions: in vivo
THP1-Dual = experiment: Cytotoxicity against human THP1-Dual cells incubated for 24 hrs by CCK-8 method
Cyclic GMP-AMP synthase [19] = molecular target: T1, Cyclic GMP-AMP synthase; experiment: Inhibition of cGAS in dsDNA activated human THP1-Dual cells preincubated for 1 hr followed by cGAMP addition and measured after 24 hrs by luminescence based QUANTI-Luc assay
Cyclic GMP-AMP synthase [20] = molecular target: T1, Cyclic GMP-AMP synthase; experiment: Inhibition of human cGas incubated for 120 mins
Cyclic GMP-AMP synthase [21] = molecular target: T2, Cyclic GMP-AMP synthase; experiment: Inhibition of mouse cGas incubated for 120 mins
Cyclic GMP-AMP synthase [22] = molecular target: T2, Cyclic GMP-AMP synthase

T2 sequence (Q8C6L5 whole entry): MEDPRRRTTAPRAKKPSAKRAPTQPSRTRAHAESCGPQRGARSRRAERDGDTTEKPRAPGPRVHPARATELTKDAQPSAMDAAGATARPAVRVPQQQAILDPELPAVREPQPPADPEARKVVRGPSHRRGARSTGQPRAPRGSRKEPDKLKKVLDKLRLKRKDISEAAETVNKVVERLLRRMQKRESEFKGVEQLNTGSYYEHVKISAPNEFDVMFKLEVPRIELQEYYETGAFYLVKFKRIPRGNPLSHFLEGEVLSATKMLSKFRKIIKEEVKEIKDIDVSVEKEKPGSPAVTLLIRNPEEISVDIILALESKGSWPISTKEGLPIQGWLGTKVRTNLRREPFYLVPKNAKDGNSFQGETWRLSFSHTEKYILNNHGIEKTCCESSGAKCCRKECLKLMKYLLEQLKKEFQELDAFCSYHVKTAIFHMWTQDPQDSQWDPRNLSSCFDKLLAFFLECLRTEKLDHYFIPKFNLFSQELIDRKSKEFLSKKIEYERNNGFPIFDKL
T1 sequence (Q8N884 whole entry): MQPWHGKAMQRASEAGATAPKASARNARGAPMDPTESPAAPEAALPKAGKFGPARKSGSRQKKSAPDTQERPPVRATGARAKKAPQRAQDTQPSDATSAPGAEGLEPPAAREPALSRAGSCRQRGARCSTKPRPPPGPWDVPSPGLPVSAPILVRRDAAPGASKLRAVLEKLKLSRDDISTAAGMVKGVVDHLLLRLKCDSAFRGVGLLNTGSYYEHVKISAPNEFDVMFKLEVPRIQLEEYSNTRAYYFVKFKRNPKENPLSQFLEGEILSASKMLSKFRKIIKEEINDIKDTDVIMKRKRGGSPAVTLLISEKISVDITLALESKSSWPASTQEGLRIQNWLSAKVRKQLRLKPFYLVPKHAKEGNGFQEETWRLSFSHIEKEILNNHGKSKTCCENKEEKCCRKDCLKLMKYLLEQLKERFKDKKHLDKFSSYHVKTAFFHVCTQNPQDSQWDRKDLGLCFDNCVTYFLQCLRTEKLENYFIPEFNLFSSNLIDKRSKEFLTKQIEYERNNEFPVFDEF

Compound	pIC50 (Cyclic GMP-AMP synthase [5])	CC50 (THP1-Dual) [µM]	also measured
Cn1ccc(-c2cc(Cl)c(Cl)c3[nH]c4c(c23)CC2(CC4)CCN(C(=O)CO)CC2)n1	4.89	> 50	
O=C(CO)N1CCC2(CCc3[nH]c4c(Cl)c(Cl)cc(-c5ccc(C(F)(F)F)nc5)c4c3C2)C1 (stereo not given)	5.06	31.7	
Cn1cc(-c2cc(Cl)c(Cl)c3[nH]c4c(c23)CC2(CC4)CCN(C(=O)CO)C2)cn1 (stereo not given)	4.61	> 50	
O=C(CO)N1CCC2(CCc3[nH]c4c(Cl)c(Cl)cc(-c5cnn(C6CCNCC6)c5)c4c3C2)C1 (stereo not given)	4.89	> 50	
C[C@@H](O)C(=O)N1CCC2(CCc3[nH]c4c(Cl)c(Cl)cc(-c5ccnc(C(F)(F)F)c5)c4c3C2)C1 (stereo not given in full)	4.75	39.1	
Cn1ccc(-c2cc(Cl)c(Cl)c3[nH]c4c(c23)CC2(CC4)CN(C(=O)CO)C2)n1	4.44	17.7	
Cn1ccc(-c2cc(Cl)c(Cl)c3c2[C@@H]2CN(C(=O)CO)CC[C@@H]2N3)n1	< 4.30	> 50	
Cn1ccc(-c2cc(Cl)c(Cl)c3[nH]c4c(c23)CC(NC(=O)CO)CC4)n1 (stereo not given)	< 4.30	> 50	
CS(=O)(=O)CC(=O)N1CCC2(CCc3[nH]c4c(Cl)c(Cl)cc(-c5ccnc(C(F)(F)F)c5)c4c3C2)C1 (stereo not given)	5.02	10.4	
Cn1ccc(-c2cc(Cl)c(Cl)c3[nH]c4c(c23)CC2(CCN(C(=O)CO)CC2)C4)n1	4.43	> 50	
C[C@H](O)[C@@H](N)C(=O)N1CCC2(CCc3[nH]c4c(Cl)c(Cl)cc(-c5ccnc(C(F)(F)F)c5)c4c3C2)C1 (stereo not given in full)	4.96	30.3	
Cn1ncc(-c2cc(Cl)c(Cl)c3[nH]c4c(c23)CC2(CC4)CCN(C(=O)CO)C2)n1 (stereo not given)	4.98	26.3	
C[C@H](O)C(=O)N1CCC2(CCc3[nH]c4c(Cl)c(Cl)cc(-c5ccnc(C(F)(F)F)c5)c4c3C2)C1 (stereo not given in full)	4.41	12.7	
Cc1nn(-c2cc3ccc(Cl)c(Cl)c3[nH]2)c(O)c1C1OC(=O)c2ccccc21 (stereo not given)			pIC50 (Cyclic GMP-AMP synthase [20]): 6.96; pIC50 (Cyclic GMP-AMP synthase [21]): 5.53
C#CC(=O)N1CCn2cccc2C1c1ccccc1 (stereo not given)			pIC50 (Cyclic GMP-AMP synthase [22]): 6.01

Second part, led by results:

pIC50 (Cyclic GMP-AMP synthase [5])	Compound	CC50 (THP1-Dual) [µM]	also measured
5.32	Cn1ccc(-c2cc(Cl)c(Cl)c3[nH]c4c(c23)CN(C(=O)CO)CC4)n1		half-life [1]: 1.31 h; clearance (in vivo [2]): 20.7 mL/min/kg; Vd [3]: 1.88 L/kg; MRT last [4]: 3.56 h; CC50 [6]: 51.8 µM; Tmax (in vivo [7]): 2.67 h; AUC(0-t) (in vivo [8]): 792 ng·h/mL; half-life [9]: 1.03 h; Cmax (in vivo [10]): 375 ng/mL; pIC50 (Cyclic GMP-AMP synthase [11]): 4.84 and < 5.00; pIC50 (Cyclic GMP-AMP synthase [12]): 7.29; pIC50 (Cyclic GMP-AMP synthase [13]): 4.83 and 4.84; AUC(0-t) (in vivo [14]): 1520 ng·h/mL; pKd (Cyclic GMP-AMP synthase [15]): 7.28; pIC50 (Cyclic GMP-AMP synthase [16]): 5.77; bioavailability (in vivo [17]): 64.1%; MRT last [18]: 1.5 h
5.20	O=C(CO)N1CCC2(CCc3[nH]c4c(Cl)c(Cl)cc(-c5ccnc(F)c5)c4c3C2)C1 (stereo not given)	13.6	
5.19	O=C(CO)N1CCC2(CCc3[nH]c4c(Cl)c(Cl)cc(-c5ccnc(OC(F)F)c5)c4c3C2)C1 (stereo not given)	13.2	
5.35	O=C(CO)N1CCC2(CCc3[nH]c4c(Cl)c(Cl)cc(-c5ccnc(C(F)(F)F)c5)c4c3C2)C1 (stereo not given)	34	half-life [1]: 1.82 h; pIC50 (Cyclic GMP-AMP synthase [19]): 5.35; clearance (in vivo [2]): 15.5 mL/min/kg; Vd [3]: 4.48 L/kg; MRT last [4]: 2.99 h; Tmax (in vivo [7]): 0.667 h; AUC(0-t) (in vivo [8]): 1070 ng·h/mL; half-life [9]: 3.36 h; Cmax (in vivo [10]): 223 ng/mL; pIC50 (Cyclic GMP-AMP synthase [11]): 4.94; pIC50 (Cyclic GMP-AMP synthase [13]): 4.94; AUC(0-t) (in vivo [14]): 920 ng·h/mL; bioavailability (in vivo [17]): 30%; MRT last [18]: 3.59 h
5.12	O=C(CO)N1CCC2(CCc3[nH]c4c(Cl)c(Cl)cc(-c5cnc(C(F)(F)F)nc5)c4c3C2)C1 (stereo not given)	34	pIC50 (Cyclic GMP-AMP synthase [19]): 5.12
5.12	Cn1ccc(-c2cc(Cl)c(Cl)c3[nH]c4c(c23)CC2(CC4)CCN(C(=O)CO)C2)n1 (stereo not given)	> 50	pIC50 (Cyclic GMP-AMP synthase [19]): 5.12; pIC50 (Cyclic GMP-AMP synthase [11]): 5.05; pIC50 (Cyclic GMP-AMP synthase [13]): 5.05
5.20	N#Cc1cc(-c2cc(Cl)c(Cl)c3[nH]c4c(c23)CC2(CC4)CCN(C(=O)CO)C2)ccn1 (stereo not given)	10.3	
5.19	Nc1cc(-c2cc(Cl)c(Cl)c3[nH]c4c(c23)CC2(CC4)CCN(C(=O)CO)C2)ccn1 (stereo not given)	> 50	pIC50 (Cyclic GMP-AMP synthase [19]): 5.19; pIC50 (Cyclic GMP-AMP synthase [11]): 5.33; pIC50 (Cyclic GMP-AMP synthase [13]): 5.33
5.47	NCC(=O)N1CCC2(CCc3[nH]c4c(Cl)c(Cl)cc(-c5ccnc(C(F)(F)F)c5)c4c3C2)C1 (stereo not given)	11.1	
5.16	C[C@@H](N)C(=O)N1CCC2(CCc3[nH]c4c(Cl)c(Cl)cc(-c5ccnc(C(F)(F)F)c5)c4c3C2)C1 (stereo not given in full)	7.08	
5.15	O=C(CO)N1CCC2(CCc3[nH]c4c(Cl)c(Cl)cc(-c5ccc(F)nc5F)c4c3C2)C1 (stereo not given)	33.4	
5.24	Cn1nc(C(F)(F)F)cc1-c1cc(Cl)c(Cl)c2[nH]c3c(c12)CC1(CC3)CCN(C(=O)CO)C1 (stereo not given)	17.3	
5.09	Nc1ccc(-c2cc(Cl)c(Cl)c3[nH]c4c(c23)CC2(CC4)CCN(C(=O)CO)C2)cn1 (stereo not given)	47.8	pIC50 (Cyclic GMP-AMP synthase [19]): 5.09
5.23	O=C(CO)N1CCC2(CCc3[nH]c4c(Cl)c(Cl)cc(-c5cn[nH]c5)c4c3C2)C1 (stereo not given)	13.7	
5.19	O=C(CO)N1CCC2(CCc3[nH]c4c(Cl)c(Cl)cc(-c5ccnc(C(F)F)c5)c4c3C2)C1 (stereo not given)	10.6	
5.37	C[C@H](N)C(=O)N1CCC2(CCc3[nH]c4c(Cl)c(Cl)cc(-c5ccnc(C(F)(F)F)c5)c4c3C2)C1 (stereo not given in full)	16.4	
5.24	O=C(CO)N1CCC2(CCc3[nH]c4c(Cl)c(Cl)cc(-c5cnn(C(F)F)c5)c4c3C2)C1 (stereo not given)	37.7	pIC50 (Cyclic GMP-AMP synthase [19]): 5.24; pIC50 (Cyclic GMP-AMP synthase [11]): 5.06; pIC50 (Cyclic GMP-AMP synthase [13]): 5.06
5.11	N#Cc1ncc(-c2cc(Cl)c(Cl)c3[nH]c4c(c23)CC2(CC4)CCN(C(=O)CO)C2)cc1F (stereo not given)	33.1	
5.37	O=C(CO)N1CCC2(CCc3[nH]c4c(Cl)c(Cl)cc(-c5ccnc(C(F)(F)F)n5)c4c3C2)C1 (stereo not given)	14.4	
5.07	CC(C)=C(C#N)C(=O)N1CCC2(CCc3[nH]c4c(Cl)c(Cl)cc(-c5ccnc(C(F)(F)F)c5)c4c3C2)C1 (stereo not given)	45.1	
